Test results taken from US9169241B2, “Quinolinyloxyphenylsulfonamides” (Max-Planck-Gesellschaft Zur Forderung der Wissenschaften …, priority 2009, dated 2015).
pIC50: −log10 of the molar value. Read-outs that look alike come from different tables or passages of the source.

How the values were obtained:
[1] = system: SF126; assay: Cell vitality assay (ATP assay, CellTiter-Glo); assay type: cell-based; settings: Homo sapiens, SF-126
How it was run: (§1)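 Luminescent ATP read-out of viable cells; IC50 = concentration at which ATP falls to 50% of DMSO control. Cells seeded at 1000/well, treated 72 h with seven concentrations from 0.195 to 12.5 μM.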

[2] = system: U118; assay: Cell vitality assay (ATP assay, CellTiter-Glo); assay type: cell-based
How it was run: as §1

[3] = system: Hs578T; assay: Cell vitality assay (ATP assay, CellTiter-Glo); assay type: cell-based; settings: Homo sapiens, Hs-578T; HS578T cell line, 72 h; Table Ib; read-out: IC50 ATP-Assay HS578T after 72 h
How it was run: as §1

[4] = system: A172; assay: Cell vitality assay (ATP assay, CellTiter-Glo); assay type: cell-based; settings: Homo sapiens, A 172; A172, 72 h; Table IIa; read-out: IC50 ATP-Assay after 72 h A172
How it was run: as §1

[5] = system: indicated cell line; assay: Wound healing migration assay (Table IV); assay type: cell-based; settings: compounds at 12.5, 6.25, 3.125 μM, 48 h-72 h
How it was run: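 Compound exposure at 12.5, 6.25 and 3.125 μM, with DMSO control, on scratch-wounded monolayers (150000 cells/24 well, overnight). Wound closure imaged by microscopy, fixed with crystal violet after 48 h or 72 h depending on cell line; IC50 is the concentration giving 50% wound size between t0 and t48/t72.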

[6] = system: Hs578T; assay: Matrigel outgrowth assay/branching assay; assay type: cell-based; settings: Homo sapiens, Hs-578T; HS578T cell line; Table Ib; read-out: Total branching inhibition in Matrigel HS578T
How it was run: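 Invasive outgrowth into a 3 mg/ml Matrigel gel is judged from images taken after 48, 72 and 96 h of exposure to 3.125, 1.56 or 0.78 μM compound, with DMSO as control. Positive means total inhibition of branching.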

[7] = system: MDA-MB231; assay: Cell vitality assay (ATP assay, CellTiter-Glo); assay type: cell-based; settings: Homo sapiens, MDA-MB-231; cell vitality assay, MDA-MB231; Table IIc; read-out: IC50 MDA-MB231
How it was run: as §1

[8] = SF126, 72 h, Table IIa, read-out: IC50 ATP-Assay after 72 h SF126
[9] = U118, 72 h, Table IIa, read-out: IC50 ATP-Assay after 72 h U118
[10] = Homo sapiens, A 172, A172 cells, read-out: IC50 Wound healing Assay A172
[11] = Homo sapiens, SF-126, SF126 cells, read-out: IC50 Wound healing Assay SF126
[12] = U118 cells, read-out: IC50 Wound healing Assay U118
[13] = Homo sapiens, C8161 cells, read-out: IC50 Wound healing Assay C8161

melting point [°C]	pIC50 [5, 10]	pIC50 [5, 11]	pIC50 [5, 12]	pIC50 [7]	SMILES	pIC50 [1, 8]	pIC50 [2, 9]	pIC50 [3]	pIC50 [4]	pIC50 [6]	pIC50 [5, 13]	pIC50 ([5]; SF763 cells, read-out: IC50 Wound healing Assay SF763)	pIC50 ([1]; cell vitality assay, SF126, Table IIb, read-out: IC50 SF126)	pIC50 ([2]; cell vitality assay, U118, Table IIc, read-out: IC50 U118)
206 to 208	≥ 4.90	≥ 4.90	≥ 4.90	–	COc1cc2c(Oc3ccc(NS(=O)(=O)c4c(Cl)cccc4Cl)cc3F)ccnc2cc1OCCCN1CCCCC1 [Example 6, 2,6-Dichloro-N-{3-fluoro-4-[6-methoxy-7-(3-piperidin-1-yl-propoxy)-quinolin-4-yloxy]-phenyl}-benzenesulfonamide]	≥ 4.90	≥ 4.90	≥ 4.90	≥ 4.90	≥ 5.00	–	–	–	–
148 to 151	≥ 4.90	≥ 4.90	≥ 4.90	–	COc1cc2c(Oc3c(Cl)cc(NS(=O)(=O)c4ccccc4C(F)(F)F)cc3Cl)ccnc2cc1OCCCN1CCC(C)CC1 [Example 210, N-(3,5-Dichloro-4-{6-methoxy-7-[3-(4-methyl-piperidin-1-yl)-propoxy]-quinolin-4-yloxy}-phenyl)-2-trifluoromethyl-benzenesulfonamide]	≥ 4.90	≥ 4.90	≥ 4.90	≥ 4.90	≥ 5.00	–	–	–	–
156 to 158	≥ 4.90	≥ 4.90	≥ 4.90	–	COc1cc2c(Oc3ccc(NS(=O)(=O)c4ccccc4OC(F)(F)F)cc3F)ccnc2cc1OCCCN1CCCCC1 [Example 78, N-{3-Fluoro-4-[6-methoxy-7-(3-piperidin-1-yl-propoxy)-quinolin-4-yloxy]-phenyl}-2-trifluoromethoxy-benzenesulfonamide]	≥ 4.90	≥ 4.90	≥ 4.90	≥ 4.90	≥ 5.00	–	–	–	–
125 to 127	≥ 4.90	≥ 4.90	≥ 4.90	–	COc1cc2c(Oc3ccc(NS(=O)(=O)c4cccc(Cl)c4F)cc3F)ccnc2cc1OCCCN1CCCC(C)C1 (stereo not shown) [Example 54, 3-Chloro-2-fluoro-N-(3-fluoro-4-{6-methoxy-7-[3-(3-methyl-piperidin-1-yl)-propoxy]-quinolin-4-yloxy}-phenyl)-benzenesulfonamide]	4.30 to 4.90	≥ 4.90	≥ 4.90	≥ 4.90	4.60 to 5.00	–	–	–	–
197 to 198	≥ 4.90	≥ 4.90	≥ 4.90	–	COc1cc2c(Oc3ccc(NS(=O)(=O)c4c(Cl)cccc4Cl)cc3F)ccnc2cc1OCCCN(C)C [Example 181, 2,6-Dichloro-N-{4-[7-(3-dimethylamino-propoxy)-6-methoxy-quinolin-4-yloxy]-3-fluoro-phenyl}-benzenesulfonamide]	≥ 4.90	≥ 4.90	≥ 4.90	≥ 4.90	≥ 5.00	–	–	–	–
125 to 127	≥ 4.90	≥ 4.90	≥ 4.90	–	COc1cc2c(Oc3ccc(NS(=O)(=O)c4c(F)cccc4F)cc3F)ccnc2cc1OCCCN(C)C [Example 178, N-{4-[7-(3-Dimethylamino-propoxy)-6-methoxy-quinolin-4-yloxy]-3-fluoro-phenyl}-2,6-difluoro-benzenesulfonamide]	≥ 4.90	≥ 4.90	≥ 4.90	≥ 4.90	≥ 5.00	–	–	–	–
134 to 136	≥ 4.90	≥ 4.90	≥ 4.90	–	COc1cc2c(Oc3ccc(NS(=O)(=O)c4ccc(F)c(F)c4F)cc3F)ccnc2cc1OCCCN1CCCC(C)C1 (stereo not shown) [Example 49, 2,3,4-Trifluoro-N-(3-fluoro-4-{6-methoxy-7-[3-(3-methyl-piperidin-1-yl)-propoxy]-quinolin-4-yloxy}-phenyl)-benzenesulfonamide]	≥ 4.90	≥ 4.90	≥ 4.90	≥ 4.90	4.60 to 5.00	–	–	–	–
171 to 172	≥ 4.90	≥ 4.90	≥ 4.90	–	COc1cc2c(Oc3ccc(NS(=O)(=O)c4c(Cl)cccc4Cl)cc3Cl)ccnc2cc1OCCCN1CCN(C)CC1 [Example 119, 2,6-Dichloro-N-(3-chloro-4-{6-methoxy-7-[3-(4-methyl-piperazin-1-yl)-propoxy]-quinolin-4-yloxy}-phenyl)-benzenesulfonamide]	≥ 4.90	≥ 4.90	≥ 4.90	≥ 4.90	≥ 5.00	–	–	–	–
80 to 82	≥ 4.90	≥ 4.90	≥ 4.90	–	COC(=O)c1sccc1S(=O)(=O)Nc1ccc(Oc2ccnc3cc(OCCCN(C)C)c(OC)cc23)c(F)c1 [Example 184, 3-{4-[7-(3-Dimethylamino-propoxy)-6-methoxy-quinolin-4-yloxy]-3-fluoro-phenylsulfamoyl}-thiophene-2-carboxylic acid methyl ester]	≥ 4.90	≥ 4.90	≥ 4.90	≥ 4.90	4.60 to 5.00	–	–	–	–
242 to 244	4.30 to 4.90	≥ 4.90	4.30 to 4.90	–	COc1cc2c(Oc3ccc(NS(=O)(=O)c4c(F)cccc4F)cc3F)ccnc2cc1OCCCN1CCCCC1 [Example 11, 2,6-Difluoro-N-{3-fluoro-4-[6-methoxy-7-(3-piperidin-1-yl-propoxy)-quinolin-4-yloxy]-phenyl}-benzenesulfonamide]	4.30 to 4.90	4.30 to 4.90	≥ 4.90	4.30 to 4.90	4.60 to 5.00	–	–	–	–
210 to 211	4.30 to 4.90	≥ 4.90	≥ 4.90	–	COc1cc2c(Oc3ccc(NS(=O)(=O)c4c(Cl)cccc4Cl)cc3F)ccnc2cc1OCCN1CCOCC1 [Example 104, 2,6-Dichloro-N-{3-fluoro-4-[6-methoxy-7-(2-morpholin-4-yl-ethoxy)-quinolin-4-yloxy]-phenyl}-benzenesulfonamide]	4.30 to 4.90	4.30 to 4.90	≥ 4.90	4.30 to 4.90	4.60 to 5.00	–	–	–	–
119 to 121	≥ 4.90	≥ 4.90	≥ 4.90	–	COc1cc2c(Oc3ccc(NS(=O)(=O)c4c(Cl)cccc4Cl)cc3F)ccnc2cc1OCCCN1CCCC(C)C1 (stereo not shown) [Example 51, 2,6-Dichloro-N-(3-fluoro-4-{6-methoxy-7-[3-(3-methyl-piperidin-1-yl)-propoxy]-quinolin-4-yloxy}-phenyl)-benzenesulfonamide]	≥ 4.90	≥ 4.90	≥ 4.90	≥ 4.90	≥ 5.00	–	–	–	–
146 to 151	≥ 4.90	≥ 4.90	≥ 4.90	–	COc1cc2c(Oc3c(Cl)cc(NS(=O)(=O)c4c(F)cccc4F)cc3Cl)ccnc2cc1OCCCN1CCC(C)CC1 [Example 209, N-(3,5-Dichloro-4-{6-methoxy-7-[3-(4-methyl-piperidin-1-yl)-propoxy]-quinolin-4-yloxy}-phenyl)-2,6-difluoro-benzenesulfonamide]	≥ 4.90	≥ 4.90	≥ 4.90	≥ 4.90	≥ 5.00	–	–	–	–
102 to 106	–	–	–	≥ 4.90	COc1cc2c(Oc3ccc(NS(=O)(=O)c4ccccc4C(F)(F)F)cc3F)ccnc2cc1OCCCN1CCN(C)CC1 [Example 24, N-(3-Fluoro-4-{6-methoxy-7-[3-(4-methyl-piperazin-1-yl)-propoxy]-quinolin-4-yloxy}-phenyl)-2-trifluoromethyl-benzenesulfonamide]	–	–	–	–	–	≥ 4.90	–	≥ 4.90	4.30 to 4.90

SMILES	melting point [°C]	pIC50 [5, 10]	pIC50 [5, 11]	pIC50 [5, 12]	pIC50 [7]	pIC50 [1, 8]	pIC50 [2, 9]	pIC50 [3]	pIC50 [4]	pIC50 [6]	pIC50 [5, 13]	pIC50 ([5]; SF763 cells, read-out: IC50 Wound healing Assay SF763)	pIC50 ([1]; cell vitality assay, SF126, Table IIb, read-out: IC50 SF126)	pIC50 ([2]; cell vitality assay, U118, Table IIc, read-out: IC50 U118)
COc1cc2c(Oc3ccc(NS(=O)(=O)c4ccccc4C(F)(F)F)cc3F)ccnc2cc1OCCCN(C)C [Example 100, N-{4-[7-(3-Dimethylamino-propoxy)-6-methoxy-quinolin-4-yloxy]-3-fluoro-phenyl}-2-trifluoromethyl-benzenesulfonamide]	89 to 91	≥ 4.90	≥ 4.90	≥ 4.90	–	≥ 4.90	≥ 4.90	≥ 4.90	≥ 4.90	≥ 5.00	4.30 to 4.90	≥ 4.90	–	–
